Tested on: PBMC of RRMS patients
Assay: Gene expression microarray analysis (HG-U133A-2) of PBMC from RRMS patients treated with LAQ, ancillary study to ALLEGRO
Type: in vivo, human
Excerpt: The goal of this ancillary study was to characterize gene expression changes and corresponding biological mechanisms induced in PBMC of RRMS patients by LAQ treatment. According to ALLEGRO clinical trial inclusion criteria, 25 patients were randomly assigned to receive LAQ (n=13, age 38.8±2.3 years, female/male ratio: 8/5) or placebo (n=12, age 37.2±3.4 years, female/male ratio: 8/4).
Peripheral blood samples were obtained from RRMS patients at baseline before start of LAQ treatment or placebo, after 0, 1, 6 and 24 month of treatment (visit 0, 1, 6 and 7 according to ALLEGRO clinical trial protocol correspondently) for gene microarray analysis.
Briefly, 1) Peripheral blood mononuclear cells (PBMC) were obtained from RRMS patients that participated in ALLEGRO and were treated daily with 0.6 mg LAQ or placebo. PBMC were subjected for gene expression analysis (HU-133A-2-Affymatrix arrays) at baseline and at 1 and 6 months of LAQ treatment; 2) Data was analyzed by Partek Genomics Solution software. Most informative genes (MIGs) were defined as those that differentiated between groups with p<0.01. Gene functional annotation, enrichment and pathway analysis were performed by Ingenuity software. For each time point, genes that changed in placebo group were excluded from further analysis; and 3) Verification of LAQ related mechanism was performed by Western blot.
PBMC were extracted from 15 ml peripheral blood, separated by Ficoll-Hypaque gradient. Total RNA was extracted using both Trizol (Invitrogen, USA) and Phase-Lock-Gel columns (Eppendorf, Germany) including a DNase digestion step. RNA integrity was assessed by RNA Experion automated electrophoresis system (Bio-Rad Laboratories, Hercules, Calif.).
Probe synthesis using 3 μg total RNA, hybridization, detection, and scanning was performed according to the standard Affymetrix, Inc. USA protocols; cDNA was synthesized using the Two-Cycle cDNA Synthesis Kit (Affymetrix, Inc., USA), and in-vitro transcription performed with the GeneChip IVT Labeling Kit (Affymetrix, Inc., USA). The biotin-labeled IVT-RNA was hybridized to HG-U133A-2 arrays containing 18,400 gene transcripts, each corresponding to 14,500 well-annotated human genes, washed in a GeneChip Fluidics Station 450 (Hewlett Packard, USA, GeneArray-™ scanner G2500A) and scanned according to the manufacturer's protocol (Affymetrix, Inc., USA).
Data analysis was performed on Partek Genomics Solution software (www.partek.com; Partek Incorporated, St. Louis, Mo.). Expression values were computed from raw CEL files by applying the Robust Multi-Chip Average (RMA) background correction algorithm. RMA correction included: 1) values background correction; 2) quintile normalization; 3) log 2 transformation; and 4) median polish summarization. The ANOVA, Repeated Measures and correlation analysis implicated in Partek software ware applied to evaluate LAQ effects. Most informative genes MIGs were defined as those that differentiated between experimental groups with p<0.01. All p-values were calculated for False Discovery Rate (FDR) multiple test correction at p=0.05.
Additionally, significance of individual genes was tested by parametric T-test and non parametric Mann-Whitney test using Bootstrapping approach based on repeated permutations of the data with 5% FDR for multiple testing.
Gene functional annotation, enrichment, and pathway analyses to identify the leading biological pathways that operated under LAQ treatment were performed by Ingenuity Pathways Analysis software (www.ingenuity.com).
ANOVA analysis was used to compare PBMC gene expression after 1, 6 or 24 month of LAQ treatment with baseline gene expression.
For each time point inventors performed analysis source of variation in dataset. (FIG. 1). Age, gender and batch effects were considered as confounders regarding LAQ or Placebo related changes. For each time point genes associated with Placebo effect were evaluated and excluded from further analysis. […]

[1] = after six months of LAQ treatment
[2] = combined 6 and 24 months vs baseline

Compound: CCN(C(=O)c1c(O)c2c(Cl)cccc2n(C)c1=O)c1ccccc1 [LAQ, 5-chloro-N-ethyl-4-hydroxy-1-methyl-2-oxo-N-phenyl-1,2-dihydroquinoline-3-carboxamide]
- p, down regulation of pro-inflammatory cytokines IL-9/11/12/20/36, TNFRSF11A/B, IFNA4/8/10/17 and receptors for IL-5/13/20/22 [1]: 3*10^−3 to 9*10^−3
- p, down-regulation of MMP16/24/26/28 and ADAM12/18/22 [1]: 4.95*10^−4 to 1.26*10^−3
- p, suppression of CCL19 and chemokine receptor CXCR1/2 [1]: 6.79*10^−3
- genes (#), Adhesion of cells (after six months of treatment): 119
- genes (#), Caveolar mediated endocytosis (after six months of treatment): 13
- genes (#), Cell signaling: Neurotransmission (after six months of treatment): 56
- genes (#), Cellular movement: Invasion of cells (after six months of treatment): 120
- genes (#), Development: Arachidonic Acid metabolism (after six months of treatment): 18
- genes (#), Development: G protein Coupled Receptor Signaling (after six months of treatment): 73
- genes (#), Hematological system: Coagulation system (after six months of treatment): 7
- genes (#), Hematological system: Intrinsic prothrombin activation pathway (after six months of treatment): 6
- genes (#), Inflammatory response: IL-12 signaling (after six months of treatment): 11
- genes (#), TGFB signaling (after six months of treatment): 14
- genes (#), Leukocyte Extravasation Signaling (after six months of treatment, cellular movement function): 31
- genes (#), Leukocyte Extravasation Signaling (after six months of treatment, inflammatory response function): 29
- # of genes p < 0.01 (LAQ related MIGs, ANOVA) [2]: 2922
- Down regulated genes (LAQ related MIGs) [2]: 2911
- Up-regulated genes (LAQ related MIGs) [2]: 11
- Fold-Change (4.0 vs. 0.0) (gene AAK1): −1.184
- Fold-Change (4.0 vs. 0.0) (gene ACSM5): −1.184
- Fold-Change (4.0 vs. 0.0) (gene ACTA1): −1.184
- Fold-Change (4.0 vs. 0.0) (gene AIF1): −1.179
- Fold-Change (4.0 vs. 0.0) (gene AKAP9): −1.183
- Fold-Change (4.0 vs. 0.0) (gene ALX4, after six months of LAQ): −1.285
- Fold-Change (4.0 vs. 0.0) (gene ASCL1): −1.178
- Fold-Change (4.0 vs. 0.0) (gene ATN1): −1.181
- Fold-Change (4.0 vs. 0.0) (gene BCAN): −1.178
- Fold-Change (4.0 vs. 0.0) (gene BCAP29): −1.18
- Fold-Change (4.0 vs. 0.0) (gene C10orf81): −1.183
- Fold-Change (4.0 vs. 0.0) (gene CA10): −1.181
- Fold-Change (4.0 vs. 0.0) (gene CBS): −1.179
- Fold-Change (4.0 vs. 0.0) (gene CLCN7): −1.177
- Fold-Change (4.0 vs. 0.0) (gene CLEC4M): −1.184
- Fold-Change (4.0 vs. 0.0) (gene CLN8): −1.182
- Fold-Change (4.0 vs. 0.0) (gene CNOT4): −1.181
- Fold-Change (4.0 vs. 0.0) (gene CYP2B6 /// CYP2B7P1, after six months of LAQ): −1.2873
- Fold-Change (4.0 vs. 0.0) (gene CYR61): −1.181
- Fold-Change (4.0 vs. 0.0) (gene DCBLD2): −1.18
- Fold-Change (4.0 vs. 0.0) (gene DDN): −1.178
- Fold-Change (4.0 vs. 0.0) (gene DHX34): −1.184
- Fold-Change (4.0 vs. 0.0) (gene DNAH3): −1.184
- Fold-Change (4.0 vs. 0.0) (gene DPYSL4): −1.18
- Fold-Change (4.0 vs. 0.0) (gene DUOX2): −1.178
- Fold-Change (4.0 vs. 0.0) (gene ESPL1, after six months of LAQ): −1.284
- Fold-Change (4.0 vs. 0.0) (gene EXO1): −1.179
- Fold-Change (4.0 vs. 0.0) (gene FAM188A): −1.178
- Fold-Change (4.0 vs. 0.0) (gene FAM189A1): −1.183
- Fold-Change (4.0 vs. 0.0) (gene GIPR): −1.1819
- Fold-Change (4.0 vs. 0.0) (gene GPR12): −1.178
- Fold-Change (4.0 vs. 0.0) (gene GPRIN2): −1.179
- Fold-Change (4.0 vs. 0.0) (gene GRK5, after six months of LAQ): −1.289
- Fold-Change (4.0 vs. 0.0) (gene GRM1): −1.181
- Fold-Change (4.0 vs. 0.0) (gene GRM8): −1.182
- Fold-Change (4.0 vs. 0.0) (gene HHLA1): −1.181
- Fold-Change (4.0 vs. 0.0) (gene HOXC11): −1.181
- Fold-Change (4.0 vs. 0.0) (gene HS3ST3B1): −1.178
- Fold-Change (4.0 vs. 0.0) (gene ICMT): −1.183
- Fold-Change (4.0 vs. 0.0) (gene IFNA17): −1.18
- Fold-Change (4.0 vs. 0.0) (gene IGHG1): −1.183
- Fold-Change (4.0 vs. 0.0) (gene IHH): −1.179
- Fold-Change (4.0 vs. 0.0) (gene ITGB4): −1.181
- Fold-Change (4.0 vs. 0.0) (gene KCND3): −1.184
- Fold-Change (4.0 vs. 0.0) (gene KRT5, after six months of LAQ): −1.285
- Fold-Change (4.0 vs. 0.0) (gene LAMA3): −1.181
- Fold-Change (4.0 vs. 0.0) (gene LAMC2): −1.18
- Fold-Change (4.0 vs. 0.0) (gene MALL, after six months of LAQ): −1.286
- Fold-Change (4.0 vs. 0.0) (gene MGC2889): −1.18
- Fold-Change (4.0 vs. 0.0) (gene MGC31957): −1.183
- Fold-Change (4.0 vs. 0.0) (gene MORN1): −1.178
- Fold-Change (4.0 vs. 0.0) (gene MYOZ1): −1.183
- Fold-Change (4.0 vs. 0.0) (gene NAGLU): −1.184
- Fold-Change (4.0 vs. 0.0) (gene NECAB2): −1.179
- Fold-Change (4.0 vs. 0.0) (gene NNAT): −1.184
- Fold-Change (4.0 vs. 0.0) (gene NOVA2): −1.18
- Fold-Change (4.0 vs. 0.0) (gene NOX1): −1.179
- Fold-Change (4.0 vs. 0.0) (gene NPR1): −1.1842
- Fold-Change (4.0 vs. 0.0) (gene NR1I2): −1.182
- Fold-Change (4.0 vs. 0.0) (gene NTRK2): −1.183
- Fold-Change (4.0 vs. 0.0) (gene OR1A2): −1.179
- Fold-Change (4.0 vs. 0.0) (gene OR2J2): −1.18
- Fold-Change (4.0 vs. 0.0) (gene OR3A3): −1.182
- Fold-Change (4.0 vs. 0.0) (gene PACRG): −1.182
- Fold-Change (4.0 vs. 0.0) (gene PAH): −1.182
- Fold-Change (4.0 vs. 0.0) (gene PARD3, after six months of LAQ): −1.288
- Fold-Change (4.0 vs. 0.0) (gene PDX1): −1.179
- Fold-Change (4.0 vs. 0.0) (gene PKNOX2): −1.183
- Fold-Change (4.0 vs. 0.0) (gene POLQ): −1.179
- Fold-Change (4.0 vs. 0.0) (gene POPDC3): −1.184
- Fold-Change (4.0 vs. 0.0) (gene PRDM11): −1.183
- Fold-Change (4.0 vs. 0.0) (gene PRKCE): −1.179
- Fold-Change (4.0 vs. 0.0) (gene PRKG1): −1.181
- Fold-Change (4.0 vs. 0.0) (gene PRSS7): −1.18
- Fold-Change (4.0 vs. 0.0) (gene PURA): −1.179
- Fold-Change (4.0 vs. 0.0) (gene RAB11B): −1.18
- Fold-Change (4.0 vs. 0.0) (gene RAD51): −1.18
- Fold-Change (4.0 vs. 0.0) (gene RELN): −1.18
- Fold-Change (4.0 vs. 0.0) (gene RET): −1.183
- Fold-Change (4.0 vs. 0.0) (gene RUNX2): −1.177
- Fold-Change (4.0 vs. 0.0) (gene SERPINB3): −1.178
- Fold-Change (4.0 vs. 0.0) (gene SLC6A11): −1.181
- Fold-Change (4.0 vs. 0.0) (gene SLC25A10): −1.182
- Fold-Change (4.0 vs. 0.0) (gene SLC30A3): −1.184
- Fold-Change (4.0 vs. 0.0) (gene SLC37A4): −1.181
- Fold-Change (4.0 vs. 0.0) (gene SLC39A2): −1.178
- Fold-Change (4.0 vs. 0.0) (gene SLCO5A1): −1.181
- Fold-Change (4.0 vs. 0.0) (gene SOD3): −1.181
- Fold-Change (4.0 vs. 0.0) (gene SOX15, after six months of LAQ): −1.285
- Fold-Change (4.0 vs. 0.0) (gene STRA6): −1.181
- Fold-Change (4.0 vs. 0.0) (gene TACR2): −1.18
- Fold-Change (4.0 vs. 0.0) (gene TRIO): −1.1816
- Fold-Change (4.0 vs. 0.0) (gene TTLL5): −1.182
- Fold-Change (4.0 vs. 0.0) (gene TTYH1): −1.177
- Fold-Change (4.0 vs. 0.0) (gene VPS37B, after six months of LAQ): −1.288
- Fold-Change (4.0 vs. 0.0) (gene VSNL1): −1.18
- Fold-Change (4.0 vs. 0.0) (gene XPNPEP2): −1.183
- Fold-Change (4.0 vs. 0.0) (gene ZNF215): −1.182
- Fold-Change (4.0 vs. 0.0) (gene ZNF280B): −1.177
- Fold-Change (4.0 vs. 0.0) (gene ZNF484): −1.1781
- suppressed molecules associated with different mechanisms of inflammatory response (of 354 genes affected after 1 month of treatment): 50
- down-regulated genes related to cellular movement mechanisms (of 1564 genes that passed FDR, more than 6 months (combined 6 and 24 months)): 305
- share of significantly changed genes that were down regulated (one month of treatment): 98%
- genes related to suppression of Cellular movement functions (out of 1562 genes, 6 months of treatment): 260
- share of significantly changed genes that were down regulated (six months of treatment): 99%

Source: patent US20160201132A1, “GENE EXPRESSION BIOMARKERS OF LAQUINIMOD RESPONSIVENESS” (Teva Pharmaceutical Industries Ltd., priority 2013, published 2016)
